Reference: the NIST ThermoML archive (doi:10.1021/acs.jced.9b00415)

Details: for viscosity / mass density: 102 kPa, Liquid; for viscosity: Concentric cylinders viscometry; for mass density: Vibrating tube method

CCCCn1cc[n+](C)c1.O=[N+]([O-])[O-] [1-butyl-3-methylimidazolium nitrate]
Details	Triple point temperature [K]	mass density [kg/m3]	viscosity [mPa·s]
303.15 K	–	1151.9	148.1
308.15 K	–	1148.7	112.9
313.15 K	–	1145.5	87.87
318.15 K	–	1142.3	69.65
323.15 K	–	1139.2	56.17
328.15 K	–	1136.1	45.97
333.15 K	–	1133.1	38.11
338.15 K	–	1130	32.05
343.15 K	–	1127	27.29
348.15 K	–	1123.9	23.4
353.15 K	–	1120.9	20.29
358.15 K	–	1117.9	17.73
363.15 K	–	1115	15.61
Crystal 1, DSC	308	–	–
Crystal 4, DSC	279	–	–

CCCCn1cc[n+](C)c1.[Cl-] [1-butyl-3-methylimidazolium chloride]
Details	mass density [kg/m3]	viscosity [mPa·s]
343.15 K	1057.5	256.7
348.15 K	1054.8	189.4
353.15 K	1052	142.7
358.15 K	1049.3	109.6
363.15 K	1046.5	85.65

DSC
Details	Glass transition temperature [°C]	Triple point temperature [K]
Crystal	–	342
Glass	-42	–

CCCCn1cc[n+](C)c1.CS(=O)(=O)[O-] [1-butyl-3-methylimidazolium methanesulfonate]
Details	mass density [kg/m3]	viscosity [mPa·s]
348.15 K	1139.4	36.51
353.15 K	1136.3	30.57
358.15 K	1133.1	25.89
363.15 K	1130	22.16

Details	Triple point temperature [K]
Crystal, DSC	348
